Where “and” joins values, the source holds several entries; their conditions need not be identical. Identical values can stand only once.
Assays:
[1] = test system: T/G Human Aortic Smooth Muscle Cells; format: cell-based; on Growth score: key: −: Lethal treatment, no cells left viable, all rounded, shriveled and dead; −/+: Some treated cells remain viable, about equal amount of clearly dead cells; +/−: Most cells remain viable, detectable number of dead cells; 1+: All cells appear viable, same density as when treated; 2+: Minimal proliferation, compared to control; 3+: Moderate proliferation compared to control; 4+: Maximal growth, unaffected by treatment
Vero cells = format: cell-based, monkey
[2] = test system: T/G HA-VSMC cells (human aortic smooth muscle cell system); format: cell-based

SMILES | Growth score [1] | Effect on the increase in the number of cultured cells (Vero cells) | Effect on the increase in the number of cultured cells [2] | Effect on the increase in the number of cultured cells [1]
NC(Cc1ccc(N(CCCl)CCCl)cc1)C(=O)O (centres unmarked) [Melphalan, melphalan, reference compound] | 2+ and 1+ and 3+ and 4+ | – | – | –
O=C(CCNc1c2ccccc2nc2ccccc12)OCCN(CCCl)CCCl [β-alanine, N-(acridin-9-yl), 2-[bis(2-chloroethyl)amino]ethyl ester] | −/+ and 1+ and +/− and 3+ and 4+ | inhibited the increase in the number | inhibited the increase in the number | inhibited the increase in the number of cultured Human Aortic Smooth Muscle Cells in a dose-dependent manner with a relatively broad therapeutic window

— patent US20010036948A1 (priority 1998, published 2001)
